According to the supplement of paper PMC10307832:

Tests used:
Test in all cases: relative viability (nuclei count vs DMSO), 5 days (fraction); higher = more cells survive
[1] = test system: NCI-H1355
Outline: (§1)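 Relative viability equals treated-well nuclei counts divided by vehicle-well nuclei counts. Counts came from 4× images of lung cancer cell lines grown in 1536-well plates for 5 days after pin-tool dosing on the day after seeding. Dosing used one drug alone or a fixed anchor-drug dose plus five library-drug doses (not always all listed) in √10 steps, and values are medians of duplicate plates.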

[2] = test system: LCLC-103H
Outline: as §1

[3] = test system: HCC-827
Outline: as §1

[4] = test system: LCLC-97TM1
Outline: as §1

[5] = test system: NCI-H2405
Outline: as §1

[6] = test system: SK-LU-1
Outline: as §1

[7] = test system: NCI-H1395
Outline: as §1

[8] = test system: NCI-H2087
Outline: as §1

[9] = test system: NCI-H3122
Outline: as §1

[10] = test system: CAL-12T
Outline: as §1

[11] = test system: NCI-H322M
Outline: as §1

[12] = test system: NCI-H1437
Outline: as §1

[13] = test system: 201T
Outline: as §1

[14] = test system: BEN
Outline: as §1

[15] = test system: NCI-H2023
Outline: as §1

[16] = test system: NCI-H1793
Outline: as §1

[17] = test system: NCI-H647
Outline: as §1

[18] = test system: NCI-H2228
Outline: as §1

[19] = test system: NCI-H727
Outline: as §1

[20] = test system: HOP-62
Outline: as §1

[21] = test system: NCI-H1650
Outline: as §1

[22] = test system: LXF-289
Outline: as §1

[23] = test system: RERF-LC-KJ
Outline: as §1

[24] = test system: HCC-44
Outline: as §1

COc1cc(N2CCC(C(N)=O)CC2)ccc1Nc1nc(N)c(Cl)c(Nc2ccccc2S(=O)(=O)C(C)C)n1 [HG-5-88-01] + CC(=O)Nc1cccc(-n2c(=O)n(C3CC3)c(=O)c3c(Nc4ccc(I)cc4F)n(C)c(=O)c(C)c32)c1 [Trametinib] (partner 0.02 µM)
relative viability ([1]; first compound 0.04 µM): 0.439 | relative viability ([1]; first compound 0.1265 µM): 0.351 | relative viability ([1]; first compound 0.4 µM): 0.407 | relative viability ([1]; first compound 1.265 µM): 0.298 | relative viability ([1]; first compound 4 µM): 0.323 | relative viability ([2]; first compound 0.04 µM): 0.693 | relative viability ([2]; first compound 0.1265 µM): 0.649 | relative viability ([2]; first compound 0.4 µM): 0.52 | relative viability ([2]; first compound 1.265 µM): 0.69 | relative viability ([2]; first compound 4 µM): 0.732 | relative viability ([3]; first compound 0.04 µM): 0.529 | relative viability ([3]; first compound 0.1265 µM): 0.463 | relative viability ([3]; first compound 0.4 µM): 0.538 | relative viability ([3]; first compound 1.265 µM): 0.18 | relative viability ([3]; first compound 4 µM): 0.269 | relative viability ([4]; first compound 0.04 µM): 0.154 | relative viability ([4]; first compound 0.1265 µM): 0.211 | relative viability ([4]; first compound 0.4 µM): 0.188 | relative viability ([4]; first compound 1.265 µM): 0.147 | relative viability ([4]; first compound 4 µM): 0.136 | relative viability ([5]; first compound 0.04 µM): 0.676 | relative viability ([5]; first compound 0.1265 µM): 0.706 | relative viability ([5]; first compound 0.4 µM): 0.529 | relative viability ([5]; first compound 1.265 µM): 0.455 | relative viability ([5]; first compound 4 µM): 0.545 | relative viability ([6]; first compound 0.04 µM): 0.394 | relative viability ([6]; first compound 0.1265 µM): 0.388 | relative viability ([6]; first compound 0.4 µM): 0.451 | relative viability ([6]; first compound 1.265 µM): 0.474 | relative viability ([6]; first compound 4 µM): 0.363 | relative viability ([7]; first compound 0.04 µM): 1 | relative viability ([7]; first compound 0.1265 µM): 1.21 | relative viability ([7]; first compound 0.4 µM): 1.08 | relative viability ([7]; first compound 1.265 µM): 0.773 | relative viability ([7]; first compound 4 µM): 1.13 | relative viability ([8]; first compound 0.04 µM): 0.238 | relative viability ([8]; first compound 0.1265 µM): 0.218 | relative viability ([8]; first compound 0.4 µM): 0.194 | relative viability ([8]; first compound 1.265 µM): 0.15 | relative viability ([8]; first compound 4 µM): 0.164 | relative viability ([9]; first compound 0.04 µM): 0.223 | relative viability ([9]; first compound 0.1265 µM): 0.169 | relative viability ([9]; first compound 0.4 µM): 0.154 | relative viability ([9]; first compound 1.265 µM): 0.132 | relative viability ([9]; first compound 4 µM): 0.0965 | relative viability ([10]; first compound 0.04 µM): 0.377 | relative viability ([10]; first compound 0.1265 µM): 0.378 | relative viability ([10]; first compound 0.4 µM): 0.3 | relative viability ([10]; first compound 1.265 µM): 0.227 | relative viability ([10]; first compound 4 µM): 0.201 | relative viability ([11]; first compound 0.04 µM): 0.486 | relative viability ([11]; first compound 0.1265 µM): 0.459 | relative viability ([11]; first compound 0.4 µM): 0.524 | relative viability ([11]; first compound 1.265 µM): 0.36 | relative viability ([11]; first compound 4 µM): 0.451 | relative viability ([12]; first compound 0.04 µM): 0.581 | relative viability ([12]; first compound 0.1265 µM): 0.56 | relative viability ([12]; first compound 0.4 µM): 0.447 | relative viability ([12]; first compound 1.265 µM): 0.475 | relative viability ([12]; first compound 4 µM): 0.333 | relative viability ([13]; first compound 0.04 µM): 0.697 | relative viability ([13]; first compound 0.1265 µM): 0.699 | relative viability ([13]; first compound 1.265 µM): 0.694 | relative viability ([13]; first compound 4 µM): 0.782 | relative viability ([14]; first compound 0.04 µM): 1.04 | relative viability ([14]; first compound 0.1265 µM): 1.12 | relative viability ([14]; first compound 0.4 µM): 1.16 | relative viability ([14]; first compound 1.265 µM): 0.76 | relative viability ([14]; first compound 4 µM): 1.06 | relative viability ([15]; first compound 0.04 µM): 0.563 | relative viability ([15]; first compound 0.1265 µM): 0.535 | relative viability ([15]; first compound 0.4 µM): 0.475 | relative viability ([15]; first compound 1.265 µM): 0.364 | relative viability ([15]; first compound 4 µM): 0.2 | relative viability ([16]; first compound 0.04 µM): 0.433 | relative viability ([16]; first compound 0.1265 µM): 0.381 | relative viability ([16]; first compound 0.4 µM): 0.462 | relative viability ([16]; first compound 1.265 µM): 0.432 | relative viability ([16]; first compound 4 µM): 0.578 | relative viability ([17]; first compound 0.04 µM): 0.436 | relative viability ([17]; first compound 0.1265 µM): 0.444 | relative viability ([17]; first compound 1.265 µM): 0.488 | relative viability ([17]; first compound 4 µM): 0.527 | relative viability ([18]; first compound 0.04 µM): 0.214 | relative viability ([18]; first compound 0.1265 µM): 0.108 | relative viability ([18]; first compound 0.4 µM): 0.268 | relative viability ([18]; first compound 1.265 µM): 0.174 | relative viability ([18]; first compound 4 µM): 0.231 | relative viability ([19]; first compound 0.04 µM): 0.379 | relative viability ([19]; first compound 0.1265 µM): 0.394 | relative viability ([19]; first compound 0.4 µM): 0.399 | relative viability ([19]; first compound 4 µM): 0.364 | relative viability ([20]; first compound 0.04 µM): 0.391 | relative viability ([20]; first compound 0.1265 µM): 0.411 | relative viability ([20]; first compound 0.4 µM): 0.345 | relative viability ([20]; first compound 1.265 µM): 0.317 | relative viability ([20]; first compound 4 µM): 0.383 | relative viability ([21]; first compound 0.04 µM): 0.586 | relative viability ([21]; first compound 0.1265 µM): 0.633 | relative viability ([21]; first compound 0.4 µM): 0.559 | relative viability ([21]; first compound 1.265 µM): 0.386 | relative viability ([21]; first compound 4 µM): 0.532 | relative viability ([22]; first compound 0.04 µM): 0.672 | relative viability ([22]; first compound 0.1265 µM): 0.692 | relative viability ([22]; first compound 0.4 µM): 0.511 | relative viability ([22]; first compound 1.265 µM): 0.677 | relative viability ([22]; first compound 4 µM): 0.672 | relative viability ([23]; first compound 0.04 µM): 0.79 | relative viability ([23]; first compound 0.1265 µM): 0.902 | relative viability ([23]; first compound 0.4 µM): 0.744 | relative viability ([23]; first compound 1.265 µM): 0.713 | relative viability ([23]; first compound 4 µM): 0.714 | relative viability ([24]; first compound 0.04 µM): 1.04 | relative viability ([24]; first compound 0.1265 µM): 1.03 | relative viability ([24]; first compound 0.4 µM): 1.1 | relative viability ([24]; first compound 1.265 µM): 1.07 | relative viability ([24]; first compound 4 µM): 1.01
